{"source": "patent US20250034153A1", "about": "“TRIAZOLOPYRIMIDINES AS A2A / A2B INHIBITORS” (Incyte Corporation, priority 2019, published 2025)", "key": {"[1]": {"target": "human adenosine A2B receptor (Homo sapiens (Human), UniProt P29275)", "sequence (P29275 whole entry)": "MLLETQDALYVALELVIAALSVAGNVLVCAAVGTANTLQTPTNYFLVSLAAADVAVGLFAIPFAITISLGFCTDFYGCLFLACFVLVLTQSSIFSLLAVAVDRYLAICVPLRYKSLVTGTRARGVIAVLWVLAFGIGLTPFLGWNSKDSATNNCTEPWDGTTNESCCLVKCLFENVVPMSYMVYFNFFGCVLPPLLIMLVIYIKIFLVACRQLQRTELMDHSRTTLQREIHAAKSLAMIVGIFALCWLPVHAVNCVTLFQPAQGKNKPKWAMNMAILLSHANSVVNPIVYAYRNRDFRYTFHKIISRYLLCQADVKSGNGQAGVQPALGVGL", "assay": "Adenosine A2B receptor cyclic AMP GS assay (Example B)", "type": "cell-based", "details": "HEK-293 cells expressing human A2B, agonist NECA 12 nM, cAMP accumulation (FRET); read-out: A2B_cAMP_EC50", "description": "Example B. Adenosine A2B Receptor Cyclic AMP GS Assay\nStably transfected HEK-293 cells expressing the human adenosine A2B receptor (Perkin Elmer) were maintained in MEM culture medium with 10% FBS and 100 μg/ml Geneticin (Life Technologies). 18 to 24 hours prior to assay, geneticin was removed from culture. The cisbio cAMP-GS Dynamic kit utilizing the FRET (Fluorescence Resonance Energy Transfer) technology was used to measure cAMP accumulation in the cells. Compounds of the present disclosure at an appropriate concentration were mixed with 10000 cells/well in white 96 well half area plates (Perkin Elmer) for 30 min at RT gently shaking. Agonist, NECA (R&D Technologies) at 12 nM was added to each well for 60 min at RT gently shaking. Detection reagents, d2-labeled cAMP (acceptor) and anti-cAMP cryptate (donor) were added to each well for 60 min at RT gently shaking. Plates were read on Pherastar (BMG Labtech), fluorescence ratio 665/620 was calculated and EC50 determination was performed by fitting the curve of percent of control versus the log of the compound concentration using GraphPad Prism."}, "Adenosine A2A": {"target": "Adenosine A2A (Homo sapiens (Human), UniProt P29274)", "sequence (P29274 whole entry)": "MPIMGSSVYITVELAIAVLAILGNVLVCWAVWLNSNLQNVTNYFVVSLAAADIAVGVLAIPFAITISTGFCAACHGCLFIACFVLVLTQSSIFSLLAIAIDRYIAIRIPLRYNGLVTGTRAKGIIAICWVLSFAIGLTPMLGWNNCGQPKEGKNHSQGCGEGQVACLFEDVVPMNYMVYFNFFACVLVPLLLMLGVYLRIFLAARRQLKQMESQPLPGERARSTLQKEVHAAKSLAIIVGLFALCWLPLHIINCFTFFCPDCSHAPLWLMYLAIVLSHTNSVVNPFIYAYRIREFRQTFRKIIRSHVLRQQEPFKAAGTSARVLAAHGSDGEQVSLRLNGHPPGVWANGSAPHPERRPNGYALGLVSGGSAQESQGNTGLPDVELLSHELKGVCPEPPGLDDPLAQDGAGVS", "assay": "A2A Tag-lite HTRF assay (Example C)", "details": "Tag-lite Adenosine A2A labeled cells, Red antagonist fluorescent ligand 12.5 nM, one-site competitive binding; read-out: A2A_Ki", "description": "Example C. A2A Tag-Lite® HTRF Assay\nAssays were conducted in black low volume 384-well polystyrene plates (Greiner 784076-25) in a final volume of 10 μL. Test compounds were first serially diluted in DMSO and 100 nl added to the plate wells before the addition of other reaction components. The final concentration of DMSO was 1%. Tag-lite® Adenosine A2A labeled cells (CisBio C1TT1A2A) were diluted 1:5 into Tag-lite buffer (CisBio LABMED) and spun 1200 g for 5 mins. The pellet was resuspended at a volume 10.4× the initial cell suspension volume in Tag-lite buffer, and Adenosine A2A Receptor Red antagonist fluorescent ligand (CisBio L0058RED) added at 12.5 nM final concentration. 10 ul of the cell and ligand mix was added to the assay wells and incubated at room temperature for 45 minutes before reading on a PHERAstar FS plate reader (BMG Labtech) with HTRF 337/620/665 optical module. Percent binding of the fluorescent ligand was calculated; where 100 nM of A2A antagonist control ZM 241385 (Tocris 1036) displaces the ligand 100% and 1% DMSO has 0% displacement. The % binding data versus the log of the inhibitor concentration was fitted to a one-site competitive binding model (GraphPad Prism version 7.02) where the ligand constant=12.5 nM and the ligand Kd=1.85 nM."}}, "data": [{"smiles": "N#Cc1cccc(-c2nc(N)n3nc(Cn4nnnc4-c4ncccn4)nc3c2-c2ccncn2)c1", "note": "[Example 51, 3-(5-amino-2-((5-(pyrimidin-2-yl)-1H-tetrazol-1-yl)methyl)-8-(pyrimidin-4-yl)-[1,2,4]triazolo[1,5-c]pyrimidin-7-yl)benzonitrile]", "values": [{"measurement": "EC50", "setting": "[1]", "value": "≤ 10", "unit": "nM"}, {"measurement": "Ki", "setting": "Adenosine A2A", "value": "≤ 10", "unit": "nM"}]}, {"smiles": "N#Cc1cccc(-c2nc(N)n3nc(Cn4nnnc4-c4ccncn4)nc3c2-c2ccncn2)c1", "note": "[Example 52, 3-(5-amino-8-(pyrimidin-4-yl)-2-((5-(pyrimidin-4-yl)-1H-tetrazol-1-yl)methyl)-[1,2,4]triazolo[1,5-c]pyrimidin-7-yl)benzonitrile]", "values": [{"measurement": "EC50", "setting": "[1]", "value": "≤ 10", "unit": "nM"}, {"measurement": "Ki", "setting": "Adenosine A2A", "value": "≤ 10", "unit": "nM"}]}, {"smiles": "N#Cc1cccc(-c2nc(N)n3nc(Cn4nnnc4-c4cccnc4)nc3c2-c2ccncn2)c1", "note": "[Example 53, 3-(5-amino-2-((5-(pyridin-3-yl)-1H-tetrazol-1-yl)methyl)-8-(pyrimidin-4-yl)-[1,2,4]triazolo[1,5-c]pyrimidin-7-yl)benzonitrile]", "values": [{"measurement": "EC50", "setting": "[1]", "value": "≤ 10", "unit": "nM"}, {"measurement": "Ki", "setting": "Adenosine A2A", "value": "≤ 10", "unit": "nM"}]}, {"smiles": "N#Cc1cccc(-c2nc(N)n3nc(Cn4nnnc4-c4ccncc4)nc3c2-c2ccncn2)c1", "note": "[Example 54, 3-(5-amino-2-((5-(pyridin-4-yl)-1H-tetrazol-1-yl)methyl)-8-(pyrimidin-4-yl)-[1,2,4]triazolo[1,5-c]pyrimidin-7-yl)benzonitrile]", "values": [{"measurement": "EC50", "setting": "[1]", "value": "≤ 10", "unit": "nM"}, {"measurement": "Ki", "setting": "Adenosine A2A", "value": "≤ 10", "unit": "nM"}]}, {"smiles": "Cc1cccc(COc2nc3c(-c4ccc(=O)n(C)c4)c(-c4cccc(C#N)c4)nc(N)n3n2)n1", "note": "[Example 55, 3-(5-amino-8-(1-methyl-6-oxo-1,6-dihydropyridin-3-yl)-2-((6-methylpyridin-2-yl)methoxy)-[1,2,4]triazolo[1,5-c]pyrimidin-7-yl)benzonitrile]", "values": [{"measurement": "EC50", "setting": "[1]", "value": "10 to 100", "unit": "nM"}, {"measurement": "Ki", "setting": "Adenosine A2A", "value": "≤ 10", "unit": "nM"}]}, {"smiles": "Cc1cccc(COc2nc3c(-c4ccncc4C)c(-c4cccc(C#N)c4)nc(N)n3n2)n1", "note": "[Example 57, 3-(5-amino-2-((6-methylpyridin-2-yl)methoxy)-8-(3-methylpyridin-4-yl)-[1,2,4]triazolo[1,5-c]pyrimidin-7-yl)benzonitrile]", "values": [{"measurement": "EC50", "setting": "[1]", "value": "10 to 100", "unit": "nM"}, {"measurement": "Ki", "setting": "Adenosine A2A", "value": "≤ 10", "unit": "nM"}]}, {"smiles": "Cc1cc(-c2c(-c3cccc(C#N)c3)nc(N)n3nc(OCc4cccc(C)n4)nc23)cc(C)n1", "note": "[Example 58, 3-(5-amino-8-(2,6-dimethylpyridin-4-yl)-2-((6-methylpyridin-2-yl)methoxy)-[1,2,4]triazolo[1,5-c]pyrimidin-7-yl)benzonitrile]", "values": [{"measurement": "EC50", "setting": "[1]", "value": "100 to 1000", "unit": "nM"}, {"measurement": "Ki", "setting": "Adenosine A2A", "value": "≤ 10", "unit": "nM"}]}, {"smiles": "COc1cc(-c2c(-c3cccc(C#N)c3)nc(N)n3nc(OCc4cccc(C)n4)nc23)cc(C)n1", "note": "[Example 59, 3-(5-amino-8-(2-methoxy-6-methylpyridin-4-yl)-2-((6-methylpyridin-2-yl)methoxy)-[1,2,4]triazolo[1,5-c]pyrimidin-7-yl)benzonitrile]", "values": [{"measurement": "EC50", "setting": "[1]", "value": "10 to 100", "unit": "nM"}, {"measurement": "Ki", "setting": "Adenosine A2A", "value": "≤ 10", "unit": "nM"}]}, {"smiles": "Cc1cccc(CNc2nc3c(-c4ccncn4)c(-c4cccc(C#N)c4)nc(N)n3n2)n1", "note": "[Example 65, 3-(5-amino-2-(((6-methylpyridin-2-yl)methyl)amino)-8-(pyrimidin-4-yl)-[1,2,4]triazolo[1,5-c]pyrimidin-7-yl)benzonitrile]", "values": [{"measurement": "EC50", "setting": "[1]", "value": "10 to 100", "unit": "nM"}, {"measurement": "Ki", "setting": "Adenosine A2A", "value": "≤ 10", "unit": "nM"}]}, {"smiles": "Cc1cccc(CNc2nc3c(-c4ccc(=O)n(C)n4)c(-c4cccc(C#N)c4)nc(N)n3n2)n1", "note": "[Example 67, 3-(5-amino-8-(1-methyl-6-oxo-1,6-dihydropyridazin-3-yl)-2-(((6-methylpyridin-2-yl)methyl)amino)-[1,2,4]triazolo[1,5-c]pyrimidin-7-yl)benzonitrile]", "values": [{"measurement": "EC50", "setting": "[1]", "value": "10 to 100", "unit": "nM"}, {"measurement": "Ki", "setting": "Adenosine A2A", "value": "≤ 10", "unit": "nM"}]}, {"smiles": "Cc1cccc(CNc2nc3c(-c4ccncc4C)c(-c4cccc(C#N)c4)nc(N)n3n2)n1", "note": "[Example 68, 3-(5-amino-2-(((6-methylpyridin-2-yl)methyl)amino)-8-(3-methylpyridin-4-yl)-[1,2,4]triazolo[1,5-c]pyrimidin-7-yl)benzonitrile]", "values": [{"measurement": "EC50", "setting": "[1]", "value": "≤ 10", "unit": "nM"}, {"measurement": "Ki", "setting": "Adenosine A2A", "value": "≤ 10", "unit": "nM"}]}, {"smiles": "Cc1cc(-c2c(-c3cccc(C#N)c3)nc(N)n3nc(NCc4cccc(C)n4)nc23)cc(C)n1", "note": "[Example 69, 3-(5-amino-8-(2,6-dimethylpyridin-4-yl)-2-(((6-methylpyridin-2-yl)methyl)amino)-[1,2,4]triazolo[1,5-c]pyrimidin-7-yl)benzonitrile]", "values": [{"measurement": "EC50", "setting": "[1]", "value": "> 1000", "unit": "nM"}, {"measurement": "Ki", "setting": "Adenosine A2A", "value": "≤ 10", "unit": "nM"}]}, {"smiles": "COc1cc(-c2c(-c3cccc(C#N)c3)nc(N)n3nc(NCc4cccc(C)n4)nc23)cc(C)n1", "note": "[Example 70, 3-(5-amino-8-(2-methoxy-6-methylpyridin-4-yl)-2-(((6-methylpyridin-2-yl)methyl)amino)-[1,2,4]triazolo[1,5-c]pyrimidin-7-yl)benzonitrile]", "values": [{"measurement": "EC50", "setting": "[1]", "value": "100 to 1000", "unit": "nM"}, {"measurement": "Ki", "setting": "Adenosine A2A", "value": "≤ 10", "unit": "nM"}]}]}
